Experimental data from PubChem BioAssay (NCI).
Several values for one entry are separate records, joined by “and”; a condition that tells them apart may be missing. Identical values can stand only once.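 Growth conditions: 96-well plates. Treatment: test compound, 48 hours, 5 concentrations. Analysis: linear interpolation between bracketing concentrations; unreached endpoints set to highest concentration. GI50: concentration for 50% inhibition of growth. At the TGI there is no net growth.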

Assays:
Test in all cases: DTP human tumour cell line panel, 48 h
SF-539 CNS = system: SF-539 CNS
HS 578T breast = system: HS 578T breast
RXF-631 renal = system: RXF-631 renal
HCC-2998 colon = system: HCC-2998 colon
NCI-H522 lung = system: NCI-H522 lung
SNB-75 CNS = system: SNB-75 CNS
PC-3 prostate = system: PC-3 prostate
T-47D breast = system: T-47D breast
LXFL 529 NSCLC = system: LXFL 529 NSCLC
RXF 393 renal = system: RXF 393 renal
HOP-92 NSCLC = system: HOP-92 NSCLC
SK-MEL-28 melanoma = system: SK-MEL-28 melanoma
KM12 colon = system: KM12 colon
EKVX NSCLC = system: EKVX NSCLC
A498 renal = system: A498 renal
BT-549 breast = system: BT-549 breast
ACHN renal = system: ACHN renal
MDA-MB-231 breast = system: MDA-MB-231 breast
SR leukemia = system: SR leukemia
TK-10 renal = system: TK-10 renal
DU-145 prostate = system: DU-145 prostate
XF 498 CNS = system: XF 498 CNS
M14 melanoma = system: M14 melanoma
786-0 renal = system: 786-0 renal
OVCAR-4 ovarian = system: OVCAR-4 ovarian
CCRF-CEM leukemia = system: CCRF-CEM leukemia
IGROV1 ovarian = system: IGROV1 ovarian
KM20L2 colon = system: KM20L2 colon
MOLT-4 leukemia = system: MOLT-4 leukemia
SK-OV-3 ovarian = system: SK-OV-3 ovarian
M19-MEL melanoma = system: M19-MEL melanoma
CAKI-1 renal = system: CAKI-1 renal
UO-31 renal = system: UO-31 renal
SK-MEL-2 melanoma = system: SK-MEL-2 melanoma
NCI-H460 lung = system: NCI-H460 lung
MALME-3M melanoma = system: MALME-3M melanoma
HOP-18 NSCLC = system: HOP-18 NSCLC
COLO 205 colon = system: COLO 205 colon
RPMI-8226 leukemia = system: RPMI-8226 leukemia
SF-268 CNS = system: SF-268 CNS
UACC-62 melanoma = system: UACC-62 melanoma
OVCAR-5 ovarian = system: OVCAR-5 ovarian
DLD-1 colon = system: DLD-1 colon
SN12C renal = system: SN12C renal
U251 CNS = system: U251 CNS
K-562 leukemia = system: K-562 leukemia
HCT-15 colon = system: HCT-15 colon
HL-60(TB) leukemia = system: HL-60(TB) leukemia
NCI-H23 lung = system: NCI-H23 lung
HT29 colon = system: HT29 colon
DMS 273 small cell lung = system: DMS 273 small cell lung
UACC-257 melanoma = system: UACC-257 melanoma
LOX IMVI melanoma = system: LOX IMVI melanoma
SNB-19 CNS = system: SNB-19 CNS
HCT-116 colon = system: HCT-116 colon
DMS 114 small cell lung = system: DMS 114 small cell lung
OVCAR-8 ovarian = system: OVCAR-8 ovarian
SK-MEL-5 melanoma = system: SK-MEL-5 melanoma
A549 NSCLC = system: A549 NSCLC
SF-295 CNS = system: SF-295 CNS
HOP-62 NSCLC = system: HOP-62 NSCLC
SW-620 colon = system: SW-620 colon
SNB-78 CNS = system: SNB-78 CNS
OVCAR-3 ovarian = system: OVCAR-3 ovarian

SMILES: COc1cccc2c1C(=O)c1c(O)c3c(c(O)c1C2=O)C[C@@](O)(C(=O)CO)C[C@@H]3OC1CC(N2CCOCC2C#N)C(O)C(C)O1 (stereo not given in full)
- TGI (SF-539 CNS): 0.1 nM and 0.109 nM
- TGI (HS 578T breast): 0.0535 nM and 0.221 nM
- TGI (RXF-631 renal): 2.27 nM and 21.5 nM
- TGI (HCC-2998 colon): 0.208 nM and 0.237 nM
- TGI (NCI-H522 lung): 0.411 nM and 0.129 nM
- TGI (SNB-75 CNS): 0.11 nM and 0.0613 nM
- TGI (PC-3 prostate): 0.124 nM and 1.12 nM
- TGI (T-47D breast): 3.27 nM and 5.81 nM
- GI50 (LXFL 529 NSCLC): 0.245 nM
- TGI (RXF 393 renal): 0.0982 nM and 0.0513 nM
- TGI (HOP-92 NSCLC): 0.614 nM and 0.566 nM
- TGI (SK-MEL-28 melanoma): 0.481 nM and 0.552 nM
- TGI (KM12 colon): 1.55 nM and 0.377 nM and 2.59 nM
- TGI (EKVX NSCLC): 0.75 nM and 0.901 nM
- TGI (A498 renal): 1.04 nM and 0.139 nM
- TGI (BT-549 breast): 0.234 nM and 0.23 nM
- GI50 (ACHN renal): 0.078 nM and 0.023 nM
- TGI (MDA-MB-231 breast): 0.812 nM
- GI50 (SR leukemia): 0.0468 nM
- GI50 (TK-10 renal): 0.278 nM and 0.374 nM
- TGI (DU-145 prostate): 20 nM
- TGI (XF 498 CNS): 0.397 nM and 0.282 nM
- GI50 (M14 melanoma): 0.0812 nM
- TGI (M14 melanoma): 0.108 nM and 0.527 nM
- GI50 (786-0 renal): 0.0534 nM and 0.0331 nM
- TGI (786-0 renal): 2.24 nM and 1.51 nM and 4.47 nM

SMILES: O=C(O)[C@@H](NS(=O)(=O)c1ccc2ccccc2c1)c1ccccc1
- TGI (SF-539 CNS): > 100000 nM
- TGI (OVCAR-4 ovarian): > 100 µM
- TGI (CCRF-CEM leukemia): > 100 µM
- TGI (RXF-631 renal): > 100000 nM
- TGI (IGROV1 ovarian): > 100 µM
- TGI (KM20L2 colon): > 100 µM
- TGI (HCC-2998 colon): > 100000 nM
- TGI (NCI-H522 lung): > 100000 nM
- TGI (SNB-75 CNS): > 100000 nM
- TGI (MOLT-4 leukemia): > 100 µM
- TGI (SK-OV-3 ovarian): > 100 µM
- TGI (M19-MEL melanoma): > 100 µM
- TGI (CAKI-1 renal): > 100 µM
- TGI (LXFL 529 NSCLC): > 100 µM
- TGI (RXF 393 renal): > 100000 nM
- TGI (HOP-92 NSCLC): > 100000 nM
- TGI (UO-31 renal): > 100 µM
- TGI (SK-MEL-28 melanoma): > 100000 nM
- TGI (SK-MEL-2 melanoma): > 100 µM
- TGI (NCI-H460 lung): > 100 µM
- TGI (MALME-3M melanoma): > 100 µM
- TGI (HOP-18 NSCLC): > 100 µM
- TGI (COLO 205 colon): > 100 µM
- TGI (RPMI-8226 leukemia): > 100 µM
- TGI (SF-268 CNS): > 100 µM
- TGI (UACC-62 melanoma): > 100 µM
- TGI (OVCAR-5 ovarian): > 100 µM
- TGI (A498 renal): > 100000 nM
- TGI (DLD-1 colon): > 100 µM
- TGI (SN12C renal): > 100 µM
- TGI (U251 CNS): > 100 µM
- TGI (ACHN renal): > 100 µM
- TGI (K-562 leukemia): > 100 µM
- TGI (HCT-15 colon): > 100 µM
- TGI (HL-60(TB) leukemia): > 100 µM
- TGI (NCI-H23 lung): > 100 µM
- TGI (HT29 colon): > 100 µM
- TGI (XF 498 CNS): > 100000 nM
- TGI (DMS 273 small cell lung): > 100 µM
- TGI (M14 melanoma): > 100000 nM
- TGI (UACC-257 melanoma): > 100 µM
- TGI (786-0 renal): > 100000 nM
- TGI (LOX IMVI melanoma): > 100 µM
- TGI (SNB-19 CNS): > 100 µM

SMILES: CN1CCc2c1nc(-c1cccnc1)c1c2N(C)CC1
- TGI (SF-539 CNS): > 100000 nM
- TGI (OVCAR-4 ovarian): > 100 µM
- TGI (CCRF-CEM leukemia): > 100 µM
- TGI (RXF-631 renal): > 100000 nM
- TGI (IGROV1 ovarian): > 100 µM
- TGI (KM20L2 colon): > 100 µM
- TGI (HCC-2998 colon): > 100000 nM
- TGI (HCT-116 colon): > 100 µM
- TGI (SNB-75 CNS): > 100000 nM
- TGI (MOLT-4 leukemia): > 100 µM
- TGI (SK-OV-3 ovarian): > 100 µM
- TGI (M19-MEL melanoma): > 100 µM
- TGI (CAKI-1 renal): > 100 µM
- TGI (LXFL 529 NSCLC): > 100 µM
- TGI (DMS 114 small cell lung): > 100 µM
- TGI (RXF 393 renal): > 100000 nM
- TGI (HOP-92 NSCLC): > 100000 nM
- TGI (UO-31 renal): > 100 µM
- TGI (OVCAR-8 ovarian): > 100 µM
- TGI (SK-MEL-5 melanoma): > 100 µM
- TGI (A549 NSCLC): > 100 µM
- TGI (SK-MEL-2 melanoma): > 100 µM
- TGI (NCI-H460 lung): > 100 µM
- TGI (MALME-3M melanoma): > 100 µM
- TGI (HOP-18 NSCLC): > 100 µM
- TGI (COLO 205 colon): > 100 µM
- TGI (RPMI-8226 leukemia): > 100 µM
- TGI (SF-295 CNS): > 100 µM
- TGI (SF-268 CNS): > 100 µM
- TGI (UACC-62 melanoma): > 100 µM
- TGI (HOP-62 NSCLC): > 100 µM
- TGI (KM12 colon): > 100000 nM
- TGI (EKVX NSCLC): > 100000 nM
- TGI (OVCAR-5 ovarian): > 100 µM
- TGI (A498 renal): > 100000 nM
- TGI (DLD-1 colon): > 100 µM
- TGI (SW-620 colon): > 100 µM
- TGI (SN12C renal): > 100 µM
- TGI (U251 CNS): > 100 µM
- TGI (ACHN renal): > 100 µM
- TGI (SNB-78 CNS): > 100 µM
- TGI (K-562 leukemia): > 100 µM
- TGI (HCT-15 colon): > 100 µM
- TGI (OVCAR-3 ovarian): > 100 µM
- TGI (TK-10 renal): > 100 µM
- TGI (HL-60(TB) leukemia): > 100 µM
- TGI (NCI-H23 lung): > 100 µM
- TGI (HT29 colon): > 100 µM
- TGI (XF 498 CNS): > 100000 nM
- TGI (DMS 273 small cell lung): > 100 µM
- TGI (M14 melanoma): > 100000 nM
- TGI (UACC-257 melanoma): > 100 µM
- TGI (786-0 renal): > 100000 nM
- TGI (LOX IMVI melanoma): > 100 µM
- TGI (SNB-19 CNS): > 100 µM
